Test results as given in US9980943B2, “Methods of treating muscular dystrophy” (BOARD OF REGENTS OF THE NEVADA SYSTEM OF HIGHER EDUCATION, …, priority 2013, dated 2018).

Key:
Type in all cases: cell-based, mouse
[1] = system: α7 integrin (LacZ reporter in α7+/LacZ myotubes); assay: Myotube α7 integrin FDG assay (Burkin assay in myotubes, 96-well); details: myotubes
[2] = system: α7 integrin (LacZ reporter in α7βgal+/− myoblasts); assay: Myoblast α7+/LacZ integrin FDG assay (Burkin assay in myoblasts, 96-well); details: α7+/LacZ myoblasts, 96-well
[3] = system: β-galactosidase in CMV-LacZ C2C12 myotubes; assay: CMV-LacZ secondary screen in C2C12 myotubes (β-Gal stabilizing assay); details: for CMV-LACZ in Myotubes, signal relative to DMSO: C2C12 CMV-LacZ myotubes, fold relative to DMSO; for CMV-LACZ in Myotubes (β-galactosidase activity relative to DMSO): CMV-LacZ C2C12 myotubes, 96-well format
Method in brief: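 First, C2C12 myoblasts were transfected with a linearized CMV-LACZ vector and clonal lines selected by FDG β-gal assay. Then cells were exposed to compounds at 0.5, 1, 5, 10, 20 and 40 μM in 96-well format, two replicates each, and β-gal measured.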

Compound	Burkin Assay in Myotubes (signal relative to DMSO) ([1]; 0.5 uM)	Burkin Assay in Myotubes (signal relative to DMSO) ([1]; 1 uM)	Burkin Assay in Myotubes (signal relative to DMSO) ([1]; 5 uM)	Burkin Assay in Myotubes (signal relative to DMSO) ([1]; 10 uM)	Burkin Assay in Myotubes (signal relative to DMSO) ([1]; 20 uM)	Burkin Assay in Myotubes (signal relative to DMSO) ([1]; 40 uM)	Burkin Assay in Myoblasts, value relative to DMSO ([2]; 0.5 uM)	Burkin Assay in Myoblasts, value relative to DMSO ([2]; 1 uM)	Burkin Assay in Myoblasts, value relative to DMSO ([2]; 5 uM)	Burkin Assay in Myoblasts, value relative to DMSO ([2]; 10 uM)	Burkin Assay in Myoblasts, value relative to DMSO ([2]; 20 uM)	Burkin Assay in Myoblasts, value relative to DMSO ([2]; 40 uM)	CMV-LACZ in Myotubes, signal relative to DMSO ([3]; 5 uM)	CMV-LACZ in Myotubes, signal relative to DMSO ([3]; 10 uM)	CMV-LACZ in Myotubes, signal relative to DMSO ([3]; 20 uM)	CMV-LACZ in Myotubes, signal relative to DMSO ([3]; 40 uM)	Burkin Assay in Myotubes, α7 integrin LacZ reporter signal relative to DMSO ([1]; 0.5 uM)	Burkin Assay in Myotubes, α7 integrin LacZ reporter signal relative to DMSO ([1]; 1 uM)	Burkin Assay in Myotubes, α7 integrin LacZ reporter signal relative to DMSO ([1]; 5 uM)	Burkin Assay in Myotubes, α7 integrin LacZ reporter signal relative to DMSO ([1]; 10 uM)	other results
Cc1cc(-c2ccccc2)n2nc(N)nc2n1 [MLS000122180-01]	1.006	0.9341	1.027	0.7456	0.9557	0.9496	0.8023	0.8424	0.9726	0.9665	1.004	0.9116	0.7773	0.8808	0.8136	1.007	–	–	–	–	–
CCCCCCC1CC(=O)NC(=O)N1 (stereo not drawn) [MLS000768008-01]	–	–	–	–	–	–	–	–	–	–	–	–	0.8276	0.9644	1.028	0.9429	1.073	1.179	1.11	1.273	Burkin Assay in Myotubes, α7 integrin LacZ reporter signal relative to DMSO ([1]; 20 uM): 1.098; Burkin Assay in Myotubes, α7 integrin LacZ reporter signal relative to DMSO ([1]; 40 uM): 1.2867; Burkin Assay in Myoblasts, signal relative to DMSO ([2]; 0.5 uM): 0.9886; Burkin Assay in Myoblasts, signal relative to DMSO ([2]; 1 uM): 0.9618; Burkin Assay in Myoblasts, signal relative to DMSO ([2]; 5 uM): 0.8976; Burkin Assay in Myoblasts, signal relative to DMSO ([2]; 10 uM): 0.8768; Burkin Assay in Myoblasts, signal relative to DMSO ([2]; 20 uM): 0.7837; Burkin Assay in Myoblasts, signal relative to DMSO ([2]; 40 uM): 0.8787
CS(=O)(=O)c1ccc(Cl)c(NC(=O)CSc2nncn2-c2ccccc2)c1 [MLS001177364-01]	–	–	–	–	–	–	–	–	–	–	–	–	1.262	0.9578	1.053	0.9743	1.036	0.9519	1.235	1.213	Burkin Assay in Myotubes, α7 integrin LacZ reporter signal relative to DMSO ([1]; 20 uM): 1.125; Burkin Assay in Myotubes, α7 integrin LacZ reporter signal relative to DMSO ([1]; 40 uM): 0.6717; Burkin Assay in Myoblasts, signal relative to DMSO ([2]; 0.5 uM): 1.082; Burkin Assay in Myoblasts, signal relative to DMSO ([2]; 1 uM): 0.9869; Burkin Assay in Myoblasts, signal relative to DMSO ([2]; 5 uM): 0.9655; Burkin Assay in Myoblasts, signal relative to DMSO ([2]; 10 uM): 0.9015; Burkin Assay in Myoblasts, signal relative to DMSO ([2]; 20 uM): 1.005; Burkin Assay in Myoblasts, signal relative to DMSO ([2]; 40 uM): 0.8386
O=C(Nc1ccccc1)Nc1ccc(Cl)c(S(=O)(=O)N2CCOCC2)c1 [MLS000773700-01]	1.008	1.019	0.7118	0.9516	0.9895	0.472	0.9335	1.0257	0.9059	0.8657	0.9227	0.8721	–	–	–	–	–	–	–	–	CMV-LACZ in Myotubes (β-galactosidase activity relative to DMSO) ([3]; 5 uM): 1.126; CMV-LACZ in Myotubes (β-galactosidase activity relative to DMSO) ([3]; 10 uM): 1.1166; CMV-LACZ in Myotubes (β-galactosidase activity relative to DMSO) ([3]; 20 uM): 0.929; CMV-LACZ in Myotubes (β-galactosidase activity relative to DMSO) ([3]; 40 uM): 0.4092
CC1CCCCN1c1ncnc(N)c1[N+](=O)[O-] (stereo not drawn) [MLS000683234-01]	–	–	–	–	–	–	–	–	–	–	–	–	0.8204	0.8111	0.6952	0.93	0.9165	1.053	1.091	1.273	Burkin Assay in Myotubes, α7 integrin LacZ reporter signal relative to DMSO ([1]; 20 uM): 1.414; Burkin Assay in Myotubes, α7 integrin LacZ reporter signal relative to DMSO ([1]; 40 uM): 1.631; Burkin Assay in Myoblasts, signal relative to DMSO ([2]; 0.5 uM): 1.187; Burkin Assay in Myoblasts, signal relative to DMSO ([2]; 1 uM): 0.8341; Burkin Assay in Myoblasts, signal relative to DMSO ([2]; 5 uM): 1.134; Burkin Assay in Myoblasts, signal relative to DMSO ([2]; 10 uM): 1.152; Burkin Assay in Myoblasts, signal relative to DMSO ([2]; 20 uM): 1.067; Burkin Assay in Myoblasts, signal relative to DMSO ([2]; 40 uM): 1.21
NS(=O)(=O)c1ccc(NC(=O)c2cc(-c3ccccc3O)n[nH]2)cc1 [MLS001214443-01]	0.8262	0.9018	0.9442	1.193	1.154	1.083	0.9203	0.8074	0.7787	0.8173	0.9132	0.9313	–	–	–	–	–	–	–	–	CMV-LACZ in Myotubes (β-galactosidase activity relative to DMSO) ([3]; 5 uM): 0.9737; CMV-LACZ in Myotubes (β-galactosidase activity relative to DMSO) ([3]; 10 uM): 1.072; CMV-LACZ in Myotubes (β-galactosidase activity relative to DMSO) ([3]; 20 uM): 0.9507; CMV-LACZ in Myotubes (β-galactosidase activity relative to DMSO) ([3]; 40 uM): 0.9022
C[C@H](NS(=O)(=O)c1ccc(Cl)cc1)C(=O)OCC(=O)c1ccc[nH]1 [MLS000761297-01]	1.0906	1.022	1.154	1.033	1.045	1.093	1.0693	1.071	1.121	1.055	1.072	0.9526	–	–	–	–	–	–	–	–	CMV-LACZ in Myotubes (β-galactosidase activity relative to DMSO) ([3]; 5 uM): 0.9911; CMV-LACZ in Myotubes (β-galactosidase activity relative to DMSO) ([3]; 10 uM): 0.8106; CMV-LACZ in Myotubes (β-galactosidase activity relative to DMSO) ([3]; 20 uM): 0.993; CMV-LACZ in Myotubes (β-galactosidase activity relative to DMSO) ([3]; 40 uM): 0.8829
CN(C)CCNc1ncnc2sc(-c3ccccc3)cc12 [MLS001179717-01]	–	–	–	–	–	–	–	–	–	–	–	–	1.084	0.8133	0.5748	0.4829	0.8788	1.027	0.744	0.6812	Burkin Assay in Myotubes, α7 integrin LacZ reporter signal relative to DMSO ([1]; 20 uM): 0.5137; Burkin Assay in Myotubes, α7 integrin LacZ reporter signal relative to DMSO ([1]; 40 uM): 0.2663; Burkin Assay in Myoblasts, signal relative to DMSO ([2]; 0.5 uM): 0.912; Burkin Assay in Myoblasts, signal relative to DMSO ([2]; 1 uM): 0.864; Burkin Assay in Myoblasts, signal relative to DMSO ([2]; 5 uM): 0.8357; Burkin Assay in Myoblasts, signal relative to DMSO ([2]; 10 uM): 0.6794; Burkin Assay in Myoblasts, signal relative to DMSO ([2]; 20 uM): 0.3052; Burkin Assay in Myoblasts, signal relative to DMSO ([2]; 40 uM): 0.05093
CCc1ccc(N(C(=O)c2snc(C(N)=O)c2N)C(C(=O)NC2CCCC2)c2ccco2)cc1 (stereo not drawn) [MLS001216714-01]	–	–	–	–	–	–	–	–	–	–	–	–	–	–	–	–	–	–	–	–	fold induction at 0.5 µM ([1]; Mus musculus, Myotube, 0.5 uM, read-out: Burkin Assay in Myotubes (signal relative to DMSO)): 1.03; fold induction at 1 µM ([1]; Mus musculus, Myotube, 1 uM, read-out: Burkin Assay in Myotubes (signal relative to DMSO)): 1.17; fold induction at 5 µM ([1]; Mus musculus, Myotube, 5 uM, read-out: Burkin Assay in Myotubes (signal relative to DMSO)): 1.1; fold induction at 10 µM ([1]; Mus musculus, Myotube, 10 uM, read-out: Burkin Assay in Myotubes (signal relative to DMSO)): 1.32; fold induction at 20 µM ([1]; Mus musculus, Myotube, 20 uM, read-out: Burkin Assay in Myotubes (signal relative to DMSO)): 0.706; fold induction at 40 µM ([1]; Mus musculus, Myotube, 40 uM, read-out: Burkin Assay in Myotubes (signal relative to DMSO)): 0.677; fold induction at 0.5 µM ([2]; Mus musculus, Myoblast, 48 h, 0.5 uM, read-out: Burkin Assay in Myoblasts, value relative to DMSO): 1.02; fold induction at 1 µM ([2]; Mus musculus, Myoblast, 48 h, 1 uM, read-out: Burkin Assay in Myoblasts, value relative to DMSO): 0.971; fold induction at 5 µM ([2]; Mus musculus, Myoblast, 48 h, 5 uM, read-out: Burkin Assay in Myoblasts, value relative to DMSO): 1.04; fold induction at 10 µM ([2]; Mus musculus, Myoblast, 48 h, 10 uM, read-out: Burkin Assay in Myoblasts, value relative to DMSO): 1.14; fold induction at 20 µM ([2]; Mus musculus, Myoblast, 48 h, 20 uM, read-out: Burkin Assay in Myoblasts, value relative to DMSO): 1.09; fold induction at 40 µM ([2]; Mus musculus, Myoblast, 48 h, 40 uM, read-out: Burkin Assay in Myoblasts, value relative to DMSO): 0.274; CMV-LACZ in Myotubes (β-galactosidase activity relative to DMSO) ([3]; 5 uM): 0.9162; CMV-LACZ in Myotubes (β-galactosidase activity relative to DMSO) ([3]; 10 uM): 0.98; CMV-LACZ in Myotubes (β-galactosidase activity relative to DMSO) ([3]; 20 uM): 1.417; CMV-LACZ in Myotubes (β-galactosidase activity relative to DMSO) ([3]; 40 uM): 3.633
